Patent publication US4994376A, “Detection of bacteroides gingivalis” (priority 1987, dated 1991)
Several values for one entry are separate records, joined by “and”; a condition that tells them apart may be missing. Equal entries are not always repeated. Where two headings read alike, the source gives them in different places. Peptide text beside a SMILES is read from it.

How the values were obtained:
Type in all cases: biochemical
B. mel. ss. intermedius = tested on: B. mel. ss. intermedius
Protocol: (§1) The enzyme activity was measured by the chromogenic properties of N-CBz-glycyl-glycyl-L-arginine-β-naphthylamide which upon hydrolysis gives a visible color. The aminopeptidase activities listed in the table reflect the nanomoles of β-naphthylamine liberated after 60 minutes under the conditions described below.
(§2) After mixing, the solution is incubated for 1 hour at 37° C. and then 0.4 ml of a solution of stabilized diazonium salt, Fast Garnet GBC (0.5 mg/ml) in a 1M acetic acid buffer (pH 4.2), containing 10% Tween 20 was added to the mixture. After standing for 15 minutes at room temperature, the color reaction can be read manually by comparison with standard solutions or the absorbancy can be determined using a spectrophotometer at 525 nm. The reaction mixture without enzyme solution is used as a control.

C. ochracea = tested on: C. ochracea
Protocol: as §1, §2

Capnocytophaga sp. = tested on: Capnocytophaga sp.
Protocol: as §1, §2

[1] = tested on: Capnocytophaga gingivalis
Protocol: as §1, §2

L. fermentum = assay: Aminopeptidase activity on β-naphthylamide substrates
Protocol: as §1, §2
(§3) The enzyme activity and the aminopeptidase activities were determined in the manner described above in regard to Table I.

Haemophilus aphrophilus = assay: as above
Protocol: as §1, §2, §3

S. salivarius = assay: as above; conditions: β-naphthylamine liberated after 60 minutes, 37° C.
Protocol: as §1, §2, §3

A. suis = assay: as above
Protocol: as §1, §2, §3

F. periodonticum = assay: as above
Protocol: as §1, §2, §3

A. equuli = assay: as above
Protocol: as §1, §2, §3

Veillonella alcalesens = assay: as above
Protocol: as §1, §2, §3

Lactobacillus casei = assay: as above
Protocol: as §1, §2, §3

B. intermedius = assay: as above
Protocol: as §1, §2

C. sputigena = assay: as above
Protocol: as §1, §2

B. corporis = assay: as above
Protocol: as §1, §2

B. denticola = assay: as above
Protocol: as §1, §2

B. melaninogenicus = assay: as above
Protocol: as §1, §2

Actinomyces israeli = tested on: Actinomyces israeli
Protocol: as §1, §2, §3

Eikenella corrodens = tested on: Eikenella corrodens
Protocol: as §1, §2, §3

S. sanguis = tested on: S. sanguis
Protocol: as §1, §2, §3

S. mutans = tested on: S. mutans
Protocol: as §1, §2, §3

Fusobacterium nucleatum = tested on: Fusobacterium nucleatum
Protocol: as §1, §2, §3

A. seminis = tested on: A. seminis
Protocol: as §1, §2, §3

V. parvula = tested on: V. parvula
Protocol: as §1, §2, §3

Campylobacter sputorum = tested on: Campylobacter sputorum
Protocol: as §1, §2, §3

"Anaerobic vibrio" = tested on: "Anaerobic vibrio"
Protocol: as §1, §2, §3

Veillonella sp. = tested on: Veillonella sp.
Protocol: as §1, §2, §3

B. loescheii = tested on: B. loescheii
Protocol: as §1, §2

B. levii = tested on: B. levii
Protocol: as §1, §2

A. viscosus = tested on: A. viscosus
Protocol: as §1, §2, §3

[2] = strain D31A-24, β-naphthylamine liberated after 60 minutes, 37° C.

N=C(N)NCCC[C@H](NC(=O)CN)C(=O)O [Gly-Arg, Glycyl-arginine] (H-Gly-Arg-OH)
Aminopeptidase activity (B. mel. ss. intermedius): 13 and 9 | Aminopeptidase activity (C. ochracea): 11 | Aminopeptidase activity (Capnocytophaga sp.): 20 | Aminopeptidase activity [1]: 6 | Aminopeptidase activity (L. fermentum; strain ATCC 11581, β-naphthylamine liberated after 60 minutes, 37° C.): 0 nmol | Aminopeptidase activity (Haemophilus aphrophilus; strain ATCC 13252, β-naphthylamine liberated after 60 minutes, 37° C.): 0 nmol | Aminopeptidase activity (Haemophilus aphrophilus; strain ATCC 19415, β-naphthylamine liberated after 60 minutes, 37° C.): 0 nmol | Aminopeptidase activity (Haemophilus aphrophilus; strain NCTC 5908, β-naphthylamine liberated after 60 minutes, 37° C.): 0 nmol | Aminopeptidase activity (S. salivarius; strain ATCC 9759): 0 nmol | Aminopeptidase activity (S. salivarius; strain ATCC 25975): 0 nmol | Aminopeptidase activity (A. suis; strain ATCC 15557, β-naphthylamine liberated after 60 minutes, 37° C.): 0 nmol | Aminopeptidase activity (F. periodonticum; strain EK1-15, β-naphthylamine liberated after 60 minutes, 37° C.): 0 nmol | Aminopeptidase activity (A. equuli; strain ATCC 19392, β-naphthylamine liberated after 60 minutes, 37° C.): 0 nmol | Aminopeptidase activity (Veillonella alcalesens; strain ATCC 11748, β-naphthylamine liberated after 60 minutes, 37° C.): 0 nmol | Aminopeptidase activity (Lactobacillus casei; strain ATCC 7469, β-naphthylamine liberated after 60 minutes, 37° C.): 0 nmol | Aminopeptidase activity (Lactobacillus casei; strain ATCC 11578, β-naphthylamine liberated after 60 minutes, 37° C.): 0 nmol | Aminopeptidase activity (Lactobacillus casei; strain ATCC 11582, β-naphthylamine liberated after 60 minutes, 37° C.): 1 nmol | Aminopeptidase activity (B. intermedius; strain ATCC 25611, β-naphthylamine liberated after 60 minutes, 37° C.): 22 nmol | Aminopeptidase activity (C. sputigena; strain ATCC 33123, β-naphthylamine liberated after 60 minutes, 37° C.): 8 nmol | Aminopeptidase activity (B. corporis; strain ATCC 33547, β-naphthylamine liberated after 60 minutes, 37° C.): 0 nmol | Aminopeptidase activity (B. denticola; strain ATCC 33185, β-naphthylamine liberated after 60 minutes, 37° C.): 4 nmol | Aminopeptidase activity (B. melaninogenicus; strain ATCC 25845, β-naphthylamine liberated after 60 minutes, 37° C.): 4 nmol | Aminopeptidase activity (Actinomyces israeli): 0 | Aminopeptidase activity (Eikenella corrodens): 2 | Aminopeptidase activity (S. sanguis): 3 | Aminopeptidase activity (S. mutans): 0 | Aminopeptidase activity (Fusobacterium nucleatum): 0 | Aminopeptidase activity (Fusobacterium nucleatum; [2]): 1 nmol | Aminopeptidase activity (A. seminis): 0 | Aminopeptidase activity (V. parvula): 0 | Aminopeptidase activity (Campylobacter sputorum): 0 | Aminopeptidase activity ("Anaerobic vibrio"): 0 | Aminopeptidase activity (Veillonella sp.): 0

NCCCC[C@H](N)C(=O)N1CCC[C@H]1C(=O)O [Lys-Pro, Lysyl-proline] (H-Lys-Pro-OH)
Aminopeptidase activity (B. loescheii): 81 and 89 | Aminopeptidase activity (B. levii): 51 and 54 | Aminopeptidase activity (B. mel. ss. intermedius): 54 and 75 and 69 | Aminopeptidase activity (C. ochracea): 108 | Aminopeptidase activity (Capnocytophaga sp.): 35 | Aminopeptidase activity [1]: 176 | Aminopeptidase activity (L. fermentum): 0 | Aminopeptidase activity (Haemophilus aphrophilus): 0 | Aminopeptidase activity (A. suis): 0 | Aminopeptidase activity (F. periodonticum): 1 | Aminopeptidase activity (A. equuli): 0 | Aminopeptidase activity (Veillonella alcalesens): 1 | Aminopeptidase activity (Lactobacillus casei): 0 | Aminopeptidase activity (B. intermedius): 63 | Aminopeptidase activity (C. sputigena): 86 | Aminopeptidase activity (B. corporis): 75 | Aminopeptidase activity (B. denticola): 86 | Aminopeptidase activity (B. melaninogenicus): 70 | Aminopeptidase activity (Eikenella corrodens): 0 | Aminopeptidase activity (S. sanguis): 5 and 4 | Aminopeptidase activity (S. mutans): 14 | Aminopeptidase activity (Fusobacterium nucleatum): 2 and 1 | Aminopeptidase activity (Fusobacterium nucleatum; [2]): 2 nmol | Aminopeptidase activity (A. seminis): 0 | Aminopeptidase activity (V. parvula): 0 | Aminopeptidase activity (Campylobacter sputorum): 3 | Aminopeptidase activity (A. viscosus): 5 and 7 | Aminopeptidase activity ("Anaerobic vibrio"): 3 | Aminopeptidase activity (Veillonella sp.): 1
